Laboratory results: patent US7563913B2, “Compound and pharmaceutical composition” (Hiro International Co., Ltd., priority 2003, dated 2009)
In brackets after ≈: the same amount, converted by molar mass.

What was measured:
[1] = system: human acute myeloid leukemia cell strain HL-60; experiment: Cytotoxic activity, MTT test on HL-60 cells; type: cell-based; details: 72 hr incubation; for IC50: Homo sapiens
Method: Cytostatic activity of TD-1 to 10 was studied in terms of numerical values of cytotoxic activity using human acute myeloid leukemia cell strain HL-60. The test was specifically carried out according to the following procedure.
HL-60 cells precultured in an FBS-containing RPMI 1640 medium were suspended in an FBS-containing RPMI 1640 medium so that the number of HL-60 cells is 4×10^4 per mL. The suspension was dispensed in an amount of […] for each well in a 96-well microplate, followed by preincubation in 5% carbon dioxide gas at 37° C. for 24 hr. Subsequently, EtOH-H2O(1:1) as control, and a solution of each TD compound in EtOH-H2O(1:1) as a sample were added each in an amount of […] to each well. After incubation in 5% carbon dioxide gas at 37° C. for 72 hr, an MTT reagent was added in an amount of […] to each well, and incubation was further carried out for 4 hr. The medium was removed, and MTT formazan thus produced was then dissolved in […] of DMSO. Detection was carried out at a light absorption wavelength of 550 nm with a microplate reader, and the viable cell count based on the control was calculated. IC50 values were calculated from a dose-response curve.

[2] = system: P388 mouse leukemia; details: mice with P388 mouse leukemia intraperitoneally transplanted; Pal et al. 1976; cited from earlier work
[3] = system: OVCAR-3 ovarian cancer cell line; experiment: Human cultured cancer cell panel screening test, OVCAR-3; type: cell-based
Method: (§1) To examine the cytostatic activity of TD-1, a human cultured cancer cell panel screening test was carried out. Specifically, for TD-1, the human cultured cancer cell panel screening test was carried out by measuring 50% cell growth inhibitory concentration (GI50) against 39 types in total of human tumor cells according to the method described in “Gan To Kagaku Ryoho (Cancer and Chemotherapy) (Takao Yamori), 24, 129-135, 1997”.

[4] = system: OVCAR-8 ovarian cancer cell line; experiment: Human cultured cancer cell panel screening test, OVCAR-8; type: cell-based
Method: as §1

[5] = system: PC-3 prostatic cancer cell line; experiment: Human cultured cancer cell panel screening test, PC-3; type: cell-based
Method: as §1

[6] = system: SK-OV-3 ovarian cancer cell line; experiment: Human cultured cancer cell panel screening test, SK-OV-3; type: cell-based
Method: as §1

[7] = system: OVCAR-5 ovarian cancer cell line; experiment: Human cultured cancer cell panel screening test, OVCAR-5; type: cell-based
Method: as §1

[8] = system: 39 types in total of human tumor cells; experiment: Human cultured cancer cell panel screening test, average over panel; type: cell-based; details: 50% cell growth inhibitory concentration, average over 39 human tumor cell types
Method: as §1

[9] = system: OVCAR-4 ovarian cancer cell line; experiment: Human cultured cancer cell panel screening test, OVCAR-4; type: cell-based
Method: as §1

[10] = system: DU-145 prostatic cancer cell line; experiment: Human cultured cancer cell panel screening test, DU-145; type: cell-based
Method: as §1

In the case of `C=C1C(=O)O[C@@H]2C[C@H](C)[C@@]3(O)C[C@H](O)[C@@](C)(C[C@@H](OC(=O)C(C)C)[C@@H]12)O3` [TD-7, (1S,3R,4S,6R,7S,8R,10R)-1,3-dihydroxy-3,10-epoxy-8-isobutyryloxygermacra-11(13)-en-6,12-olide], the IC50 value [1] is reported as “(3.87) μg/mL”.

In the case of `C=C1C(=O)O[C@@H]2C=C(C)[C@@]3(OC)C[C@H](O)[C@@](C)(C[C@@H](OC(=O)C(C)C)[C@@H]12)O3` [TD-6, (1 S,3R,6R,7R, 8R,10R)-1-hydroxy-3-methoxy-3,10-epoxy-8-isobutyryloxygermacra-4,11(13)-dien-6,12-olide], the IC50 value [1] is reported as “(2.50) μg/mL”.

`C=C1C(=O)OC2/C=C(/C)C(=O)/C=C/C(C)(O)CC(OC(=O)C(C)C)C12` [TD-2, (6S,7R,8R,10R)-10-hydroxy-3-oxo-8-isobutyryloxygermacra-1,4,11(13)-trien-6,12-olide] showed an IC50 [1] of 0.38 µg/mL (≈ 1.09 µM).

For `C=C1C(=O)O[C@H]2/C=C(/C)[C@@]3(O)C=C[C@@](C)(C[C@@H](OC(=O)C(C)C)[C@@H]12)O3` [TD-11, (3R,6R,7R,8R,10R)-3-hydroxy-3,10-epoxy-8-isobutyryloxygermacra-1,4,11(13)-trien-6,12-olide], the “effect of prolonging the life span of mice” value [2] is listed as “had the effect of prolonging the life span of mice”.

With `C=C1C(=O)O[C@@H]2C[C@H](C)[C@@]3(OC)C[C@H](O)[C@@](C)(C[C@@H](OC(=O)C(C)C)[C@@H]12)O3` [TD-3, (1S,3R,4S,6R,7S,8R,10R)-1-hydroxy-3-methoxy-3,10-epoxy-8-isobutyryloxygermacra-11(13)-en-6,12-olide] the IC50 value [1] was “(4.97) μg/mL”.

In the case of `C=C1C(=O)O[C@@H]2C=C(C)[C@@]3(O)C[C@@H](OC)[C@@](C)(C[C@@H](OC(=O)C(C)C)[C@@H]12)O3` [TD-4, (1R,3R,6R,7R,8R,10R)-3-hydroxy-1-methoxy-3,10-epoxy-8-isobutyryloxygermacra-4,11(13)-dien-6,12-olide], the IC50 value [1] is reported as “(0.05) μg/mL”.

`C=C1C(=O)OC2/C=C(/C)C(O)CC3OC3(C)CC(OC(=O)C(C)C)C12` [TD-8, (1R,3S,6S,7R,8R,10R)-3-hydroxy-1,10-epoxy-8-isobutyrylgermacra-4,11(13)-dien-6,12-olide] showed an IC50 [1] of 0.92 µg/mL (≈ 2.63 µM).

In the case of `C=C1C(=O)O[C@@H]2C=C(C)[C@@]3(OC)C[C@@H](OC)[C@@](C)(C[C@@H](OC(=O)C(C)C)[C@@H]12)O3` [TD-1, (1R,3R,6R,7R,8R,10R)-1,3-dimethoxy-3,10-epoxy-8-isobutyryloxygermacra-4,11(13)-dien-6,12-olide], the GI50 [3] is reported as 3.3 µM, the GI50 [4] is reported as 3.6 µM and the GI50 [5] is reported as 3.3 µM. The IC50 value [1] was “(0.60) μg/mL”, the GI50 [6] was 4 µM and the GI50 [7] was 2.9 µM. For the same compound, the GI50 [8] was 6.8 µM, the GI50 [9] was 5.6 µM and the GI50 [10] was 4.2 µM.

For `C=C1C(=O)O[C@@H]2C[C@H](C)[C@@]3(OC)CC[C@@](C)(C[C@@H](OC(=O)C(C)C)[C@@H]12)O3` [TD-10, (3R,4S,6R,7S,8R,10S)-3-methoxy-3,10-epoxy-8-isobutyryloxygermacra-11(13)-en-6,12-olide], the IC50 value [1] was “(0.78) μg/mL”.

With `C=C1C(=O)O[C@@H]2C[C@H](C)[C@@]3(O)CC[C@@](C)(C[C@@H](OC(=O)C(C)C)[C@@H]12)O3` [TD-9, (3R,4S,6R,7S,8R,10S)-3-hydroxy-3,10-epoxy-8-isobutyryloxygermacra-11 (13)-en-6,12-olide] the IC50 value [1] was “(2.50) μg/mL”.
